# Assay results published in paper PMC9131871, “Impact of Micropolymorphism Outside the Peptide Binding Groove in the Clinically Relevant Allele HLA-C*14 on T Cell Responses in HIV-1 Infection” (Journal of Virology, 2022).
# Legend:
# [1] = target: HLA-C*14:02 (Homo sapiens, UniProt P10321, A176E/A330V/A35S/A97T/C350S/D114A/D33S/L171W/L180R/L218V/M285V/M309V/M331V/P208H/Q277E/Q291P/R121W/R243W/S123F/S297R/S48A/T329A/T363A/V319A); experiment: LC-MS/MS identification of HLA-bound HIV-1 peptides from NL4-3-infected .221-C1402 cells; assay type: binding; parameters: key: ●: Closed circles indicate the peptide which was identified in HLA-C*1402 or/and -C*1403 expressing cells; details: HIV-1 NL4-3-infected .221-C1402 cells, W6/32 immunoprecipitation, two independent replicate experiments
# Description: (§1) 721.221 cells expressing CD4 and HLA-C*14:02 (.221-C1402) or HLA-C*14:03 (.221-C1403) were infected with the laboratory-adapted NL4-3 HIV-1 strain. HLA-peptide complexes were isolated from cell lysates by immunoprecipitation with the anti-HLA class I antibody W6/32; then, peptides were eluted, fractionated by high-performance liquid chromatography (HPLC), and finally analyzed by LC-MS/MS. Two independent replicate experiments were performed, in which a total of 7,970 and 8,447 unique 8- to 13-mer peptide sequences were identified from .221-C1402 and .221-C1403 cells, respectively (Fig. 1A). Of these peptides, 6,163 were identified in both the C*14:02- and C*14:03-bound peptide data sets, while other peptides were detected in the acid-eluted fraction from only a single allele. […] These motifs are consistent with the HLA-C*1402/03 peptide motifs previously estimated using reported epitopes ([29]).
# (§2) .221-C1402 and .221-C1403 cells were infected with HIV-1 NL4-3 in a low volume of RPMI 1640 medium (Thermo Fisher) containing 10% fetal bovine serum (FBS), 2 mM L-glutamine, 100 U/mL penicillin, 100 μg/mL streptomycin, and 10 mM HEPES (R10). Fifty microliters of NL4-3 stock virus (Reverse transcriptase activity (RT) value = 4 × 10^2 ng/mL) was added to 8 × 10^6 .221-C1402 cells or .221-C1403, and the cells were then incubated for 1.5 h at 37°C, after which 20 mL of R10 was added and the cells were cultured overnight. At day 1 postinfection, a further 20 mL R10 was added, and cells were split (1:2) on day 2. On day 3 postinfection, the proportion of cells infected with HIV-1 was determined by intracellular p24 staining, as previously described ([46]). Infected flasks were then harvested for immunoprecipitation of HLA-peptide complexes.
# (§3) .221-C1402 cells or .221-C1403 cells infected with NL4-3 (1.5 × 10^8 to 2 × 10^8 cells) were harvested, washed in phosphate-buffered saline (PBS), and lysed in 5 mL of lysis buffer (1% IGEPAL 630, 300 mM NaCl, 100 mM Tris [pH 8.0], plus protease inhibitors) at 4°C for 45 min. Two centrifugation steps (2,000 × g for 10 min followed by 20,000 × g for 30 min at 4°C) were next employed to clear the lysates of cell debris prior to overnight capture of HLA-peptide complexes on W6/32-coated protein A‐Sepharose beads. W6/32-bound HLA-peptide complexes were sequentially washed with 10 to 20 mL of wash buffer 1 (0.005% IGEPAL, 50 mM Tris [pH 8.0], 150 mM NaCl, 5 mM EDTA), wash buffer 2 (50 mM Tris [pH 8.0], 150 mM NaCl), wash buffer 3 (50 mM Tris [pH 8.0], 400 mM NaCl), and finally wash buffer 4 (50 mM Tris [pH 8.0]) under gravity flow in Econo-Column glass chromatography columns (Bio-Rad). Peptide-HLA complexes were eluted from the beads with 5 mL of 10% acetic acid and, after drying under vacuum, were loaded onto a 4.6- by 50-mm ProSwift RP-1S column (Thermo Fisher Scientific) and eluted from an Ultimate 3000 HPLC system (Thermo Scientific) using a 500-μL/min flow rate over 10 min from 2% to 34% buffer B (0.1% trifluoroacetic acid [TFA] in acetonitrile) in buffer A (0.1% TFA in water). Alternate fractions were pooled to give two final peptide fractions that were dried for LC-MS/MS analysis.
# (§4) Each HPLC-eluted sample was resuspended in 20 μL loading buffer, and 9 μL of it was injected onto a 3-μm-particle-size 0.075-mm by 150-mm Acclaim PepMap RSLC C18 column and further loaded onto a 2-μm-particle-size, 75-μm by 50-cm Acclaim PepMap RSLC C18 column using an Ultimate 3000 nUPLC system (Thermo Scientific). A linear gradient of 3 to 25% buffer B (0.1% formic acid, 5% dimethyl sulfoxide [DMSO] in acetonitrile) in buffer A (0.1% formic acid, 5% DMSO in water) was applied over 1 h to elute peptides from the column (flow rate of […]). Peptides were introduced, using an Easy-Spray source at 2,000 V at 40°C, into a Fusion Lumos mass spectrometer (Thermo Scientific). The ion transfer tube temperature was set to 305°C. […]
# [2] = target: HLA-C*14:03 (Homo sapiens, UniProt P10321, A176E/A330V/A35S/A97T/C350S/D114A/D33S/L171W/L180R/L218V/M285V/M309V/M331V/P208H/Q277E/Q291P/R121W/R243W/R45H/S123F/S297R/S48A/T329A/T363A/V319A); experiment: LC-MS/MS identification of HLA-bound HIV-1 peptides from NL4-3-infected .221-C1403 cells; assay type: binding; parameters: key: ●: Closed circles indicate the peptide which was identified in HLA-C*1402 or/and -C*1403 expressing cells; details: HIV-1 NL4-3-infected .221-C1403 cells, W6/32 immunoprecipitation, two independent replicate experiments
# Description: as §1, §2, §3, §4
Sequence,C1402: peptide identified by LC-MS/MS in HLA-I eluate [1],C1403: peptide identified by LC-MS/MS in HLA-I eluate [2]
AFHHVAREL [Nef AL9],●,●
AFSPEVIPM [Gag AM9],●,–
"ASGYIEAEV [Pol AV9, HIV-1 NL4-3 Pol 795–803 peptide …]",–,●
"FFREDLAF [Pol FF8, HIV-1 NL4-3 Pol 1–8 peptide FFREDLAF]",–,●
"FLGAAGSTM [Env FM9, HIV-1 NL4-3 Env 522–530 peptide …]",●,●
"FMTKALGI [Tat FI8, HIV-1 NL4-3 Tat 38–45 peptide FMTKALGI]",–,●
IYHTQGYF [Nef IF8],●,●
KYHSNWRAM [Pol KM9],●,●
LYNTIAVLY [Gag LY9],●,●
"RFDSRLAF [Nef RF8, HIV-1 NL4-3 Nef 184–191 peptide RFDSRLAF]",●,●
"VYYDPSKDL [Pol VYL9, HIV-1 NL4-3 Pol 472–480 peptide …]",●,●
YFPDWQNYT [Nef YT9],●,●
